Assay results reported in PubChem BioAssay AID1918937 (Molecular Pharmacology Branch, DTP, NCI, 2023).

System: 521955-158-R2-J5-PDC complex spheroid viability
Experiment: Anticancer human tumor 521955-158-R2-J5-PDC patient-derived pancreatic carcinoma cell line growth inhibition
Details: for IC50: curve of first compound; for viability, T/C: stronger effect = lower value; active means viability on the fitted dose curve at most 10% of control; inactive means the rest
In short: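 Complex spheroids of tumor cells with HUVEC and human MSCs, exposed to iadademstat combined with other agents. Each agent tested in half-log steps from near clinical Cmax (else 10 microM top), DMSO ≤0.25%.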

[1] = second compound 0.1 µM, first compound 0.00949 µM
[2] = second compound 0.1 µM, first compound 0.03 µM
[3] = second compound 0.1 µM, first compound 0.0949 µM
[4] = second compound 0.1 µM, first compound 0.3 µM
[5] = second compound 0.316 µM, first compound 0.00949 µM
[6] = second compound 0.316 µM, first compound 0.03 µM
[7] = second compound 0.316 µM, first compound 0.0949 µM
[8] = second compound 0.316 µM, first compound 0.3 µM
[9] = second compound 1 µM, first compound 0.00949 µM
[10] = second compound 1 µM, first compound 0.03 µM
[11] = second compound 1 µM, first compound 0.0949 µM
[12] = second compound 1 µM, first compound 0.3 µM
[13] = second compound 3.16 µM, first compound 0.00949 µM
[14] = second compound 3.16 µM, first compound 0.03 µM
[15] = second compound 3.16 µM, first compound 0.0949 µM
[16] = second compound 3.16 µM, first compound 0.3 µM
[17] = second compound 10 µM, first compound 0.00949 µM
[18] = second compound 10 µM, first compound 0.03 µM
[19] = second compound 10 µM, first compound 0.0949 µM
[20] = second compound 10 µM, first compound 0.3 µM
[21] = second compound 0.1 µM, first compound 0.00316 µM
[22] = second compound 0.1 µM, first compound 0.01 µM
[23] = second compound 0.1 µM, first compound 0.0316 µM
[24] = second compound 0.1 µM, first compound 0.1 µM
[25] = second compound 0.1 µM, first compound 0.316 µM
[26] = second compound 0.1 µM, first compound 1 µM
[27] = second compound 0.316 µM, first compound 0.00316 µM
[28] = second compound 0.316 µM, first compound 0.01 µM
[29] = second compound 0.316 µM, first compound 0.0316 µM
[30] = second compound 0.316 µM, first compound 0.1 µM
[31] = second compound 0.316 µM, first compound 0.316 µM
[32] = second compound 0.316 µM, first compound 1 µM
[33] = second compound 1 µM, first compound 0.00316 µM
[34] = second compound 1 µM, first compound 0.01 µM
[35] = second compound 1 µM, first compound 0.0316 µM
[36] = second compound 1 µM, first compound 0.1 µM
[37] = second compound 1 µM, first compound 0.316 µM
[38] = second compound 1 µM, first compound 1 µM
[39] = second compound 3.16 µM, first compound 0.00316 µM
[40] = second compound 3.16 µM, first compound 0.01 µM
[41] = second compound 3.16 µM, first compound 0.0316 µM
[42] = second compound 3.16 µM, first compound 0.1 µM
[43] = second compound 3.16 µM, first compound 0.316 µM
[44] = second compound 3.16 µM, first compound 1 µM
[45] = second compound 10 µM, first compound 0.00316 µM
[46] = second compound 10 µM, first compound 0.01 µM
[47] = second compound 10 µM, first compound 0.0316 µM
[48] = second compound 10 µM, first compound 0.1 µM
[49] = second compound 10 µM, first compound 0.316 µM
[50] = second compound 10 µM, first compound 1 µM
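Further: spheroids exposed to agents for seven days.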
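Wherever viability, T/C is given: percent of DMSO vehicle control luminescence viability.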

O=C(C=Cc1cccc(S(=O)(=O)Nc2ccccc2)c1)NO + NC1CCC(NC2CC2c2ccccc2)CC1
inactive: viability, T/C [1] 106% | viability, T/C [2] 112% | viability, T/C [3] 88.3% | viability, T/C [4] 43.7% | viability, T/C (second compound 0.1 µM, first compound 0.949 µM) 16.5% | viability, T/C (second compound 0.1 µM, first compound 3 µM) 104% | viability, T/C [5] 112% | viability, T/C [6] 104% | viability, T/C [7] 90.1% | viability, T/C [8] 46.7% | viability, T/C (second compound 0.316 µM, first compound 0.949 µM) 11.5% | viability, T/C (second compound 0.316 µM, first compound 3 µM) 98.8% | viability, T/C [9] 96.9% | viability, T/C [10] 97.3% | viability, T/C [11] 81.4% | viability, T/C [12] 53% | viability, T/C (second compound 1 µM, first compound 0.949 µM) 13% | viability, T/C (second compound 1 µM, first compound 3 µM) 88% | viability, T/C [13] 99.4% | viability, T/C [14] 102% | viability, T/C [15] 84.6% | viability, T/C [16] 50.1% | viability, T/C (second compound 3.16 µM, first compound 0.949 µM) 6.88% | viability, T/C (second compound 3.16 µM, first compound 3 µM) 89.7% | viability, T/C [17] 99.9% | viability, T/C [18] 97.2% | viability, T/C [19] 79.5% | viability, T/C [20] 51.5% | viability, T/C (second compound 10 µM, first compound 0.949 µM) 11.2% | viability, T/C (second compound 10 µM, first compound 3 µM) 88%
0.294 µM: IC50 (second compound 3.16 µM)
0.895 µM: IC50 (second compound 10 µM)
> 3 µM: IC50 (second compound 0.1 µM) | IC50 (second compound 0.316 µM) | IC50 (second compound 1 µM)

Nc1ncn(C2CC(O)C(CO)O2)c(=O)n1 (stereo not given) + NC1CC1c1ccc(-c2cccc(O)c2)cc1
> 1 µM: IC50 (second compound 0.1 µM) | IC50 (second compound 0.316 µM) | IC50 (second compound 1 µM) | IC50 (second compound 3.16 µM) | IC50 (second compound 10 µM)
inactive: viability, T/C [21] 89.9% | viability, T/C [22] 81.6% | viability, T/C [23] 83.7% | viability, T/C [24] 76.3% | viability, T/C [25] 58.7% | viability, T/C [26] 52.4% | viability, T/C [27] 78.3% | viability, T/C [28] 89.6% | viability, T/C [29] 101% | viability, T/C [30] 73.4% | viability, T/C [31] 65.5% | viability, T/C [32] 53.1% | viability, T/C [33] 84.1% | viability, T/C [34] 91.2% | viability, T/C [35] 86.6% | viability, T/C [36] 76.9% | viability, T/C [37] 68.8% | viability, T/C [38] 59.8% | viability, T/C [39] 80.9% | viability, T/C [40] 83.9% | viability, T/C [41] 82.2% | viability, T/C [42] 79% | viability, T/C [43] 76% | viability, T/C [44] 65.1% | viability, T/C [45] 87.7% | viability, T/C [46] 94% | viability, T/C [47] 95.9% | viability, T/C [48] 80.7% | viability, T/C [49] 75.5% | viability, T/C [50] 67.4%

Nc1ccn(C2OC(CO)C(O)C2(F)F)c(=O)n1 (stereo not given) + NC1CC1c1ccc(-c2cccc(O)c2)cc1
0.0708 µM: IC50 (second compound 0.316 µM)
0.0699 µM: IC50 (second compound 1 µM)
0.057 µM: IC50 (second compound 3.16 µM)
0.0668 µM: IC50 (second compound 0.1 µM)
0.0365 µM: IC50 (second compound 10 µM)
inactive: viability, T/C (second compound 0.1 µM, first compound 0.000949 µM) 86.9% | viability, T/C (second compound 0.1 µM, first compound 0.003 µM) 86.4% | viability, T/C [1] 84% | viability, T/C [2] 66.8% | viability, T/C [3] 42.8% | viability, T/C [4] 23.4% | viability, T/C (second compound 0.316 µM, first compound 0.000949 µM) 83.2% | viability, T/C (second compound 0.316 µM, first compound 0.003 µM) 89.1% | viability, T/C [5] 79.1% | viability, T/C [6] 66% | viability, T/C [7] 44.9% | viability, T/C [8] 24.9% | viability, T/C (second compound 1 µM, first compound 0.000949 µM) 90.8% | viability, T/C (second compound 1 µM, first compound 0.003 µM) 84% | viability, T/C [9] 87.3% | viability, T/C [10] 63.3% | viability, T/C [11] 45.8% | viability, T/C [12] 26.5% | viability, T/C (second compound 3.16 µM, first compound 0.000949 µM) 90.1% | viability, T/C (second compound 3.16 µM, first compound 0.003 µM) 94.8% | viability, T/C [13] 92% | viability, T/C [14] 67.7% | viability, T/C [15] 36.3% | viability, T/C [16] 27.5% | viability, T/C (second compound 10 µM, first compound 0.000949 µM) 97.4% | viability, T/C (second compound 10 µM, first compound 0.003 µM) 87.9% | viability, T/C [17] 80.3% | viability, T/C [18] 52.5% | viability, T/C [19] 36% | viability, T/C [20] 33.9%

CC1COCCN1c1cc(-c2ccnn2C)c2ccnc(-c3ccn[nH]3)c2n1 (stereo not given) + NC1CCC(NC2CC2c2ccccc2)CC1
inactive: viability, T/C [21] 13.4% | viability, T/C [22] 12.4% | viability, T/C [23] 15.4% | viability, T/C [24] 22.6% | viability, T/C [25] 21.1% | viability, T/C [26] 8.33% | viability, T/C [27] 14.7% | viability, T/C [28] 18.1% | viability, T/C [29] 16.6% | viability, T/C [30] 26.2% | viability, T/C [31] 26.8% | viability, T/C [32] 10.4% | viability, T/C [33] 14.7% | viability, T/C [34] 14.4% | viability, T/C [35] 16.7% | viability, T/C [36] 21.9% | viability, T/C [37] 27.5% | viability, T/C [38] 8.96% | viability, T/C [39] 17.2% | viability, T/C [40] 15.2% | viability, T/C [41] 17.5% | viability, T/C [42] 23.5% | viability, T/C [43] 28.7% | viability, T/C [44] 8.47% | viability, T/C [45] 16.8% | viability, T/C [46] 16.9% | viability, T/C [47] 16.7% | viability, T/C [48] 24.8% | viability, T/C [49] 29.1% | viability, T/C [50] 7.2%
< 0.00316 µM: IC50 (second compound 0.1 µM) | IC50 (second compound 0.316 µM) | IC50 (second compound 1 µM) | IC50 (second compound 3.16 µM) | IC50 (second compound 10 µM)

COc1ccc([C@@H](O)c2cc(-c3ncnc4cc(N5CCOCC5)ccc34)c(F)cc2Cl)nn1 + NC1CC1c1ccc(-c2cccc(O)c2)cc1
1.23 µM: IC50 (second compound 0.1 µM)
1.21 µM: IC50 (second compound 3.16 µM)
1.64 µM: IC50 (second compound 0.316 µM)
inactive: viability, T/C [23] 72.7% | viability, T/C [24] 78.3% | viability, T/C [25] 73.6% | viability, T/C [26] 49.9% | viability, T/C (second compound 0.1 µM, first compound 3.16 µM) 36.5% | viability, T/C (second compound 0.1 µM, first compound 10 µM) 21.6% | viability, T/C [29] 74.3% | viability, T/C [30] 69.5% | viability, T/C [31] 68.2% | viability, T/C [32] 57.6% | viability, T/C (second compound 0.316 µM, first compound 3.16 µM) 39.9% | viability, T/C (second compound 0.316 µM, first compound 10 µM) 20.6% | viability, T/C [35] 76.1% | viability, T/C [36] 72% | viability, T/C [37] 63.1% | viability, T/C [38] 55.5% | viability, T/C (second compound 1 µM, first compound 3.16 µM) 37.3% | viability, T/C (second compound 1 µM, first compound 10 µM) 20.5% | viability, T/C [41] 74.5% | viability, T/C [42] 78.7% | viability, T/C [43] 65.4% | viability, T/C [44] 53.1% | viability, T/C (second compound 3.16 µM, first compound 3.16 µM) 35.2% | viability, T/C (second compound 3.16 µM, first compound 10 µM) 21.7% | viability, T/C [47] 75.3% | viability, T/C [48] 70.6% | viability, T/C [49] 59.8% | viability, T/C [50] 49.9% | viability, T/C (second compound 10 µM, first compound 3.16 µM) 31.8% | viability, T/C (second compound 10 µM, first compound 10 µM) 21.6%
0.836 µM: IC50 (second compound 10 µM)
1.31 µM: IC50 (second compound 1 µM)
